20 compounds from patent US20090298820A1, “3-SUBSTITUTED-1H-PYRROLO[2,3-B]PYRIDINE AND 3-SUBSTITUTED-1H-PYRROLO[3,2-B]PYRIDINE COMPOUNDS, THEIR USE AS MTOR KINASE AND PI3 KINASE INHIBITORS, AND THEIR SYNTHESES” (Wyeth, priority 2008, published 2009) can be followed below.

The target in series [1] is PI3Kγ (Homo sapiens, UniProt P48736). The experiment in a line: PI3K-gamma fluorescence polarization assay. The format is biochemical. The conditions noted are these: read-out: PI3Kγ Median IC50. On the technique in general: Fluorescence polarisation rises when a labelled molecule tumbles more slowly, as on binding a larger partner.
Series [2] has as its target PI3Kα (Homo sapiens, UniProt P42336). The experiment in a line: PI3K-alpha fluorescence polarization assay. The conditions noted are these: read-out: PI3Kα Median IC50. The class given is biochemical.
The target in series [3] is mTOR (Homo sapiens, UniProt P42345). The experiment in a line: mTOR enzyme assay (DELFIA format, His6-S6K substrate). The format is biochemical. Particulars: read-out: mTOR Kinase Median IC50.

Structures can show the parent of a compound that is named as a salt.

Sequence of PI3Kγ (P48736 whole entry, species assumed): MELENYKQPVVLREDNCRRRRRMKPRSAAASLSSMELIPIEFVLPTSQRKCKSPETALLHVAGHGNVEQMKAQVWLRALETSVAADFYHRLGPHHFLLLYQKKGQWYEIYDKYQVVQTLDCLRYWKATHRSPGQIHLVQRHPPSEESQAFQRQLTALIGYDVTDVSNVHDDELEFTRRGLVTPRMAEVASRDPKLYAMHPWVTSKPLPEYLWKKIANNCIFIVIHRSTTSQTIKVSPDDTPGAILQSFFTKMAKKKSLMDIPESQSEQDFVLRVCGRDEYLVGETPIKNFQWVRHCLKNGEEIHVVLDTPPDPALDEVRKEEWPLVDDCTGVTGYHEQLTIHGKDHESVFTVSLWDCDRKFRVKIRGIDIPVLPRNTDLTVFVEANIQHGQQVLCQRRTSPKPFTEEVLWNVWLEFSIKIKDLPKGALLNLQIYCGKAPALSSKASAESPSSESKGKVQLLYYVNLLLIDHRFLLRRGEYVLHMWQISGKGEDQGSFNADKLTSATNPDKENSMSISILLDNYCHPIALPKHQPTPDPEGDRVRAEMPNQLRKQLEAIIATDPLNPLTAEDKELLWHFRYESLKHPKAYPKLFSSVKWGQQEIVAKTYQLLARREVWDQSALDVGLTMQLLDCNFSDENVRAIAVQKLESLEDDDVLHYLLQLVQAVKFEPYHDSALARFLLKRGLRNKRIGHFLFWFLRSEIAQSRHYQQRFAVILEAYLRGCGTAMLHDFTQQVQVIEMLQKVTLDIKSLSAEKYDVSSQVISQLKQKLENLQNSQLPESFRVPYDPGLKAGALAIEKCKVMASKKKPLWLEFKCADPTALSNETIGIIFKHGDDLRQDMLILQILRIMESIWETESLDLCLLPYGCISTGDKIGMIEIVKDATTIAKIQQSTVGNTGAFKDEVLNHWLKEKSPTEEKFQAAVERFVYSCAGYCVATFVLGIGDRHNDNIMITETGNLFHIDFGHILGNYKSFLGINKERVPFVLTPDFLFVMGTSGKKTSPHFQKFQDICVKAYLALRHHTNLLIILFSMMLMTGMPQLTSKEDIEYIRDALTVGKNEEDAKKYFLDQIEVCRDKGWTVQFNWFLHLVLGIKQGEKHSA
Sequence of PI3Kα (P42336 whole entry, species assumed): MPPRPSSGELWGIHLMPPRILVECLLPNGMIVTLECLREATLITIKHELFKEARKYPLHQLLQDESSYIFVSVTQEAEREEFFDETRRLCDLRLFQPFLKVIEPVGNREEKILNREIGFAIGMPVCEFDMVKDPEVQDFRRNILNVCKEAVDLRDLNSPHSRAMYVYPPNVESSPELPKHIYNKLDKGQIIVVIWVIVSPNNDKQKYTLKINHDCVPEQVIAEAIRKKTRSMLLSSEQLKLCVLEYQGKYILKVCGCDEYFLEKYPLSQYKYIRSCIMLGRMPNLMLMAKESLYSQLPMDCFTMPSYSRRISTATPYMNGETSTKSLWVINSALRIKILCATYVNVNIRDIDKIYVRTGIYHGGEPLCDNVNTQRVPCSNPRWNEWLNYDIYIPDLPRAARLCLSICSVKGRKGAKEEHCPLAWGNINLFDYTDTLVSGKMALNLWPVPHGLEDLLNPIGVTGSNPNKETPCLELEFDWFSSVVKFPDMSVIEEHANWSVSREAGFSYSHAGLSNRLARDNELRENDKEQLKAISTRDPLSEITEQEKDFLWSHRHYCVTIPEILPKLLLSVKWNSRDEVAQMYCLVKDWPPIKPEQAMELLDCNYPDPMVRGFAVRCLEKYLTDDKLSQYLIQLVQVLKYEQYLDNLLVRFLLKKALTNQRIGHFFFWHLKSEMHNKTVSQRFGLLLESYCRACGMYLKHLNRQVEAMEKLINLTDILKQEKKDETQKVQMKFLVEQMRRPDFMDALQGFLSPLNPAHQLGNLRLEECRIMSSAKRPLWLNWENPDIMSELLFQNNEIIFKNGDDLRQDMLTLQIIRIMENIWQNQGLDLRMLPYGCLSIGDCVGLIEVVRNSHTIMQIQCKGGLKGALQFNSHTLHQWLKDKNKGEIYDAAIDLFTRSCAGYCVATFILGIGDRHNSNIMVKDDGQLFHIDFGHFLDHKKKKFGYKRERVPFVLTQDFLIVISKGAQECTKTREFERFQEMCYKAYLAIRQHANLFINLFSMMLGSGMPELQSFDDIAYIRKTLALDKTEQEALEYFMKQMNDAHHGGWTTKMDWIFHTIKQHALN
Sequence of PI3Kα (P27986 whole entry partner, species assumed): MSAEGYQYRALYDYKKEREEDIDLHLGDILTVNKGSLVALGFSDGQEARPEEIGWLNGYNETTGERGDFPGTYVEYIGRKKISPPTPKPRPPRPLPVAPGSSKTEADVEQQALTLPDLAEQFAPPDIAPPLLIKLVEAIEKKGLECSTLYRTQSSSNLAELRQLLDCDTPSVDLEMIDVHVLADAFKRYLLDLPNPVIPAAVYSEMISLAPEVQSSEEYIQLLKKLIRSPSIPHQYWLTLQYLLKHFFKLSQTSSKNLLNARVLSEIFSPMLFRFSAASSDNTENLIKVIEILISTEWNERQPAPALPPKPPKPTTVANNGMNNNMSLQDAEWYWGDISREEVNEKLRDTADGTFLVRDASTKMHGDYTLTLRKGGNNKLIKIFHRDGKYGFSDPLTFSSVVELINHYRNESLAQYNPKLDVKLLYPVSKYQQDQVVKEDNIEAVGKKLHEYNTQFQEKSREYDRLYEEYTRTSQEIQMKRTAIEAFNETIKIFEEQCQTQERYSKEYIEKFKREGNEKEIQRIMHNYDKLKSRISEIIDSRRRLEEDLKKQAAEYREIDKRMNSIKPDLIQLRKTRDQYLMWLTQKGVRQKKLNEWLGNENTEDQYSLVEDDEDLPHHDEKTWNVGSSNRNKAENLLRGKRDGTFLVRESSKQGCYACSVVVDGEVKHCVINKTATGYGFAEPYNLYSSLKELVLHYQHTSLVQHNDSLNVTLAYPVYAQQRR

Usually melting point stands for the temperature of the solid-liquid transition. For `CCOC(=O)Nc1ccc2c(c1)C(=O)/C(=C/c1cn(C)c3nccc(N4CCC(C(=O)N(C)C)CC4)c13)O2` (as salt: Na) [Compound 171, ethyl[(2Z)-2-({4-[4-(dimethylcarbamoyl)piperidin-1-yl]-1-methyl-1H-pyrrolo[2,3-b]pyridin-3-yl}methylidene)-3-oxo-2,3-dihydro-1-benzofuran-5-yl]carbamate], the melting point was 162 to 167 °C.
In general, IC50 refers to the concentration that gives 50% inhibition. As for `CN(C)C(=O)C1CCN(c2ccnc3c2c(/C=C2\Oc4ccc(NC(=O)C(F)(F)F)cc4C2=O)cn3C)CC1` [Compound 163, N,N-dimethyl-1-{1-methyl-3-[(Z)-{3-oxo-5-[(trifluoroacetyl)amino]-1-benzofuran-2(3H)-ylidene}methyl]-1H-pyrrolo[2,3-b]pyridin-4-yl}piperidine-4-carboxamide], the melting point was 236 to 240 °C. In series [1], the half-maximal inhibitory concentration (IC50) was greater than 10000 nM. The IC50 in series [2] was 5640 nM.
Consider `CN(C)C(=O)C1CCN(c2ccnc3c2c(/C=C2\Oc4ccc(NC(=O)Nc5ccc(OC6CCOCC6)nc5)cc4C2=O)cn3C)CC1` [Compound 267, N,N-dimethyl-1-(1-methyl-3-{(Z)-[3-oxo-5-({[6-(tetrahydro-2H-pyran-4-yloxy)pyridin-3-yl]carbamoyl}amino)-1-benzofuran-2(3H)-ylidene]methyl}-1H-pyrrolo[2,3-b]pyridin-4-yl)piperidine-4-carboxamide], for which the 50% inhibitory concentration (IC50) in series [3] amounted to 39 nM; in series [1] it was 638 nM; in series [2] it was 503 nM.
For `CN(C)C(=O)C1CCN(c2ccnc3c2c(/C=C2\Oc4ccc(NC(=O)Nc5ccc(N6CCOCC6)cc5)cc4C2=O)cn3C)CC1` [Compound 268, N,N-dimethyl-1-(1-methyl-3-{(Z)-[5-{[(4-morpholin-4-ylphenyl)carbamoyl]amino}-3-oxo-1-benzofuran-2(3H)-ylidene]methyl}-1H-pyrrolo[2,3-b]pyridin-4-yl)piperidine-4-carboxamide], in that order: 215 nM, 6090 nM and 2590 nM.
For `Cn1cc(/C=C2\Oc3ccc(NC(=O)Nc4ccc(N5CCOCC5)cc4)cc3C2=O)c2c(N3CC4CCC(C3)O4)ccnc21` [Compound 273, 1-[(2Z)-2-{[1-methyl-4-(8-oxa-3-azabicyclo[3.2.1]oct-3-yl)-1H-pyrrolo[2,3-b]pyridin-3-yl]methylidene}-3-oxo-2,3-dihydro-1-benzofuran-5-yl]-3-(4-morpholin-4-ylphenyl)urea], in that order: 3350 nM, greater than 10000 nM and 5700 nM.
On the same counts, the results for `CN(C)CCOc1ccc(NC(=O)Nc2ccc3c(c2)C(=O)/C(=C/c2cn(C)c4nccc(N5CCC(C(=O)N(C)C)CC5)c24)O3)cc1` [Compound 274, 1-{3-[(Z)-{5-[({4-[2-(dimethylamino)ethoxy]phenyl}carbamoyl)amino]-3-oxo-1-benzofuran-2(3H)-ylidene}methyl]-1-methyl-1H-pyrrolo[2,3-b]pyridin-4-yl}-N,N-dimethylpiperidine-4-carboxamide] are 21 nM, 934 nM and 778 nM.
On to `COC1CCN(C(=O)C2CCN(c3ccnc4c3c(/C=C3\Oc5ccc(NC(=O)Nc6cccnc6)cc5C3=O)cn4C)CC2)C1` (stereo not shown) [Compound 275, 1-{(2Z)-2-[(4-{4-[(3-methoxypyrrolidin-1-yl)carbonyl]piperidin-1-yl}-1-methyl-1H-pyrrolo[2,3-b]pyridin-3-yl)methylidene]-3-oxo-2,3-dihydro-1-benzofuran-5-yl}-3-pyridin-3-ylurea], for which the concentration for half-maximal inhibition (IC50) came to 13 nM in series [3], 1330 nM in series [1] and 1610 nM in series [2].
As for `Cn1cc(/C=C2\Oc3ccc(NC(=O)Nc4ccc(CN5CCCCC5)cc4)cc3C2=O)c2c(N3CC4CCC(C3)O4)ccnc21` [Compound 278, 1-[(2Z)-2-{[1-methyl-4-(8-oxa-3-azabicyclo[3.2.1]oct-3-yl)-1H-pyrrolo[2,3-b]pyridin-3-yl]methylidene}-3-oxo-2,3-dihydro-1-benzofuran-5-yl]-3-[4-(piperidin-1-ylmethyl)phenyl]urea], the IC50 in series [3] was determined as 23 nM; in series [1] it was 450 nM; in series [2] it was 743 nM.
For `Cn1cc(/C=C2\Oc3ccc(NC(=O)NC4CNC4)cc3C2=O)c2c(N3CC4CCC(C3)O4)ccnc21` [Compound 285, 1-azetidin-3-yl-3-[(2Z)-2-{[1-methyl-4-(8-oxa-3-azabicyclo[3.2.1]oct-3-yl)-1H-pyrrolo[2,3-b]pyridin-3-yl]methylidene}-3-oxo-2,3-dihydro-1-benzofuran-5-yl]urea], in that order: 11.4 nM, 532 nM and 49 nM.
Take `Cn1cc(/C=C2\Oc3ccc(NC(=O)NC4CCN(C(=O)C(F)(F)F)CC4)cc3C2=O)c2c(N3CC4CCC(C3)O4)ccnc21` [Compound 286, 1-[(2Z)-2-{[1-methyl-4-(8-oxa-3-azabicyclo[3.2.1]oct-3-yl)-1H-pyrrolo[2,3-b]pyridin-3-yl]methylidene}-3-oxo-2,3-dihydro-1-benzofuran-5-yl]-3-[1-(trifluoroacetyl)piperidin-4-yl]urea]: the results for the IC50 in series [3], in series [1] and in series [2] were 108 nM, 1720 nM and 354 nM, respectively.
For `CN(C)C(=O)C1CCN(c2ccnc3c2c(/C=C2\Oc4ccc(NC(=O)NC5CNC5)cc4C2=O)cn3C)CC1` [Compound 287, 1-{3-[(Z)-{5-[(azetidin-3-ylcarbamoyl)amino]-3-oxo-1-benzofuran-2(3H)-ylidene}methyl]-1-methyl-1H-pyrrolo[2,3-b]pyridin-4-yl}-N,N-dimethylpiperidine-4-carboxamide], in that order: 8.4 nM, 314 nM and 68 nM.
For `CC(C)NC(=O)Nc1ccc2c(c1)C(=O)/C(=C/c1cn(C)c3nccc(N4CCC(C(=O)N(C)C)CC4)c13)O2` [Compound 288, N,N-dimethyl-1-(1-methyl-3-{(Z)-[5-{[(1-methylethyl)carbamoyl]amino}-3-oxo-1-benzofuran-2(3H)-ylidene]methyl}-1H-pyrrolo[2,3-b]pyridin-4-yl)piperidine-4-carboxamide], in that order: 73 nM, 3780 nM and 1490 nM.
On the same counts, the results for `Cn1cc(/C=C2\Oc3ccc(NC(=O)Nc4nc5ccccc5n4C)cc3C2=O)c2c(N3CC4CCC(C3)O4)ccnc21` [Compound 289, 1-(1-methyl-1H-benzimidazol-2-yl)-3-[(2Z)-2-{[1-methyl-4-(8-oxa-3-azabicyclo[3.2.1]oct-3-yl)-1H-pyrrolo[2,3-b]pyridin-3-yl]methylidene}-3-oxo-2,3-dihydro-1-benzofuran-5-yl]urea] are 205 nM, greater than 10000 nM and 5710 nM.
In the case of `CN(C)C(=O)C1CCN(c2ccnc3c2c(/C=C2\Oc4ccc(NC(=O)Nc5nc6ccccc6n5C)cc4C2=O)cn3C)CC1` [Compound 290, N,N-dimethyl-1-(1-methyl-3-{(Z)-[5-{[(1-methyl-1H-benzimidazol-2-yl)carbamoyl]amino}-3-oxo-1-benzofuran-2(3H)-ylidene]methyl}-1H-pyrrolo[2,3-b]pyridin-4-yl)piperidine-4-carboxamide], the results for the concentration for half-maximal inhibition (IC50) in series [3], in series [1] and in series [2] were 150 nM, greater than 10000 nM and 1250 nM, respectively.
On the same counts, the results for `CN(C)C(=O)C1CCN(c2ccnc3c2c(/C=C2\Oc4ccc(NC(=O)NC5CC5)cc4C2=O)cn3C)CC1` [Compound 291, 1-{3-[(Z)-{5-[(cyclopropylcarbamoyl)amino]-3-oxo-1-benzofuran-2(3H)-ylidene}methyl]-1-methyl-1H-pyrrolo[2,3-b]pyridin-4-yl}-N,N-dimethylpiperidine-4-carboxamide] are 59 nM, 4680 nM and 2550 nM.
As to `Cn1cc(/C=C2\Oc3ccc(NC(=O)Nc4cccnc4)cc3C2=O)c2c(C3=CCOCC3)ccnc21` [Compound 294, 1-[(2Z)-2-{[4-(3,6-dihydro-2H-pyran-4-yl)-1-methyl-1H-pyrrolo[2,3-b]pyridin-3-yl]methylidene}-3-oxo-2,3-dihydro-1-benzofuran-5-yl]-3-pyridin-3-ylurea], the IC50 in series [3] is 27.5 nM; in series [1], greater than 10000 nM; in series [2] it was 2080 nM.
On the same counts, the results for `Cn1cc(/C=C2\Oc3ccc(NC(=O)Nc4ccc(F)nc4)cc3C2=O)c2c(N3CC4CCC(C3)O4)ccnc21` [Compound 298, 1-(6-fluoropyridin-3-yl)-3-[(2Z)-2-{[1-methyl-4-(8-oxa-3-azabicyclo[3.2.1]oct-3-yl)-1H-pyrrolo[2,3-b]pyridin-3-yl]methylidene}-3-oxo-2,3-dihydro-1-benzofuran-5-yl]urea] are 26 nM, 2120 nM and 274 nM.
For `CN(C)C(=O)C1CCN(c2ccnc3c2c(/C=C2\Oc4ccc(NC(=O)NC5CCN(C(=O)C(F)(F)F)CC5)cc4C2=O)cn3C)CC1` [Compound 300, N,N-dimethyl-1-(1-methyl-3-{(Z)-[3-oxo-5-({[1-(trifluoroacetyl)piperidin-4-yl]carbamoyl}amino)-1-benzofuran-2(3H)-ylidene]methyl}-1H-pyrrolo[2,3-b]pyridin-4-yl)piperidine-4-carboxamide], in that order: 105 nM, 3540 nM and 736 nM.
For “(2Z)-2-({4-[4-(5,6-dihydro-4H-1,3-oxazin-2-yl)phenyl]-1-methyl-1H-pyrrolo[2,3- b]pyridin-3-yl}methylidene)-4-hydroxy-1-benzofuran-3(2H)-one [Compound 22]”, in that order: 4.6 nM, 276 nM and 109 nM.
Turning to “(2Z)-4-hydroxy-2-{[1-methyl-4-(1H-pyrrol-2-yl)-1H-pyrrolo[2,3-b]pyridin-3-yl]methylidene}-1-benzofuran-3(2H)-one [Compound 23]”, the figures for the IC50 in series [3], in series [1] and in series [2] were 50.5 nM, 2090 nM and 381 nM, respectively.
